Laboratory results published in ChEMBL document CHEMBL1955809, “Discovery of GS-9256: a novel phosphinic acid derived inhibitor of the hepatitis C virus NS3/4A protease with potent clinical activity” (Bioorg Med Chem Lett, 2012).
Activity calls are given as the source filed them. The calls are words filed in the database; no cut-off is given here.

Tests used:
[1] = tested on: Hepatitis C virus; test: Inhibition of HCV1b NS3/4A protease; set-up: species or system Hepatitis C virus subtype 1b; details: for IC50: Hepatitis C virus
[2] = tested on: Hepatitis C virus; test: Antiviral activity against HCV genotype 1b infected in human Huh cells expressing luc gene by replicon assay; format: functional, organism-based, Hepacivirus hominis
[3] = Permeability from apical to basolateral side in human Caco2 cells; format: ADME, cell-based; details: Caco-2, read-out: permeability
[4] = Permeability from basolateral to apical side in human Caco2 cells; format: ADME, cell-based; details: Caco-2, read-out: permeability
[5] = Selectivity ratio of IC50 human protease 3 to IC50 for HCV 1b NS3/4A protease
[6] = Drug excretion in iv dosed bile-cannulated rat bile assessed as parent compound level after 4 hrs; format: ADME, organism-based; details: read-out: Ae
[7] = Oral bioavailability in dog at 4 mg/kg; format: ADME, organism-based, Canis lupus familiaris; details: in vivo
[8] = Selectivity ratio of IC50 for cathepsin D to IC50 for HCV1b NS3/4A protease
[9] = Selectivity ratio of IC50 for cathepsin L to IC50 for HCV1b NS3/4A protease
[10] = Selectivity ratio of IC50 for human leukocyte protease to IC50 for HCV1b NS3/4A protease
[11] = Selectivity ratio of IC50 for porcine pancreatic elastase to IC50 for HCV1b NS3/4A protease
[12] = Inhibition of CYP450; format: ADME
[13] = target: Voltage-gated inwardly rectifying potassium channel KCNH2 (Homo sapiens, UniProt Q12809); test: Inhibition of human ERG up to 25 uM
Voltage-gated inwardly rectifying potassium channel KCNH2, sequence (Q12809 whole entry): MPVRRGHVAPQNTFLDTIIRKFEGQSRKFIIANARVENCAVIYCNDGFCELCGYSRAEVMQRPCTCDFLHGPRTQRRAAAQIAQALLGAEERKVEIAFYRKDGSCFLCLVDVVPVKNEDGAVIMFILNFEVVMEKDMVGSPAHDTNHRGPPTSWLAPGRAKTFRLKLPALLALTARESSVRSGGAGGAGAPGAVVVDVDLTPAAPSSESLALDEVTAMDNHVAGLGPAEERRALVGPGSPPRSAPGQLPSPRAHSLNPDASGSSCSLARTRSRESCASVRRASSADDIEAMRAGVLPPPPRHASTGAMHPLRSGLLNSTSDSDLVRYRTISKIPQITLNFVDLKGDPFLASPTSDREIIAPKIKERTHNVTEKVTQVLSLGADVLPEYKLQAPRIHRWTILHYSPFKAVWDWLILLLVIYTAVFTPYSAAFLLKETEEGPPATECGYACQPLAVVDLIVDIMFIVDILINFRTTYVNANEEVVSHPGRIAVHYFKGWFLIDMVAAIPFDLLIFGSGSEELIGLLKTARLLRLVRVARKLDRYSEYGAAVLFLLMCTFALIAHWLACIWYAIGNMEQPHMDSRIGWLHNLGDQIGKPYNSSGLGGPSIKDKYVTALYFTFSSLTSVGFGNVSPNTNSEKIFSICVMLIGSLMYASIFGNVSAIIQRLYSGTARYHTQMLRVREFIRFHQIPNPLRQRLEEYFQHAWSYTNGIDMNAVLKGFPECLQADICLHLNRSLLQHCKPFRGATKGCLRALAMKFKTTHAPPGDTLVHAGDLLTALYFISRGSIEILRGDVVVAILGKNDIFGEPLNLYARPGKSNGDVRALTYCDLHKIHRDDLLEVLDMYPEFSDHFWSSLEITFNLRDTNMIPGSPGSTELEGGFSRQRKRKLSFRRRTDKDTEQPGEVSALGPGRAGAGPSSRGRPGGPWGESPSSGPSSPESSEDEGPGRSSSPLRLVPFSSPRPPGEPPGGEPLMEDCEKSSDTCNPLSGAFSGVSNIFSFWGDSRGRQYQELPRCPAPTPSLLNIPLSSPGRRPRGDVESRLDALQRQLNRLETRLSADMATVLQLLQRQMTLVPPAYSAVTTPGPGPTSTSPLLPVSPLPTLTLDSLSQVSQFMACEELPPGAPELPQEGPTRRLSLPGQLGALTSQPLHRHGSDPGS

[14] = Inhibition of P-glycoprotein
[15] = target: Bile salt export pump (Homo sapiens, UniProt O95342); test: Inhibition of BSEP
Bile salt export pump, sequence (O95342 whole entry): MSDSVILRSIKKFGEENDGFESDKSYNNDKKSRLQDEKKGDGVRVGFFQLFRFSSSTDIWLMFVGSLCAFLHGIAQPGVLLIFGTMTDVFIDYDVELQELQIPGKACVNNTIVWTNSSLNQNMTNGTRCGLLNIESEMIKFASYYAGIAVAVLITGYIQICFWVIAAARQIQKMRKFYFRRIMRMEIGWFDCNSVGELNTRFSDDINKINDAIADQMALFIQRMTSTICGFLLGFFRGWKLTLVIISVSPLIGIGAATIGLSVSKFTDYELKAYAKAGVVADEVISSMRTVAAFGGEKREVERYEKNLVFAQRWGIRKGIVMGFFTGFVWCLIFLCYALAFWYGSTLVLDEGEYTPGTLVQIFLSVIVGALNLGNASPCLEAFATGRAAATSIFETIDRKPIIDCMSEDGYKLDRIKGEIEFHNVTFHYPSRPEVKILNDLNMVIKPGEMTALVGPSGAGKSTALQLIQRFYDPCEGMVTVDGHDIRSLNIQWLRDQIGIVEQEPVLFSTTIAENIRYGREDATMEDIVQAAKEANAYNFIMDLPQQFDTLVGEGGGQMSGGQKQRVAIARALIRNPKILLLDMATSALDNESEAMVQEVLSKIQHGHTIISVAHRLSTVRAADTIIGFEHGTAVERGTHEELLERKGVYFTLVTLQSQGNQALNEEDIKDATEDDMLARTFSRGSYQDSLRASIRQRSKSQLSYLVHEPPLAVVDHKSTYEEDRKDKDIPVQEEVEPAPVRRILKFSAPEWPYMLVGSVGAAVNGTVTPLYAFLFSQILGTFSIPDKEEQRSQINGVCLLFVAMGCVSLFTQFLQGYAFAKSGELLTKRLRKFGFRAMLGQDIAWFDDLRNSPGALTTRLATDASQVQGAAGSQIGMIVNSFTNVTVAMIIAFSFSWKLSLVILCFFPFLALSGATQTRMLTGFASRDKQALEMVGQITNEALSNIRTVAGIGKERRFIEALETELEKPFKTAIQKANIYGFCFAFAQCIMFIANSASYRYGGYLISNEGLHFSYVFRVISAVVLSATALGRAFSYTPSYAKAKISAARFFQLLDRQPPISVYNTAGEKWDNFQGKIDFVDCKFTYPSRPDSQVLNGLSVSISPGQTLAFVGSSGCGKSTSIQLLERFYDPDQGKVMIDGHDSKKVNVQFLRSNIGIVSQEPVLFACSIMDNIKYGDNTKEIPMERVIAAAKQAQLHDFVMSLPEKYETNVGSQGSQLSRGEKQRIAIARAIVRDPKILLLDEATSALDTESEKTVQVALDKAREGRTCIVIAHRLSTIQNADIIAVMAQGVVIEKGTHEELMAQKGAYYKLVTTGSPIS

[16] = target: T1, Solute carrier family 22 member 6 (Homo sapiens, UniProt Q4U2R8); test: Activity at OAT1
T1 sequence (Q4U2R8 whole entry): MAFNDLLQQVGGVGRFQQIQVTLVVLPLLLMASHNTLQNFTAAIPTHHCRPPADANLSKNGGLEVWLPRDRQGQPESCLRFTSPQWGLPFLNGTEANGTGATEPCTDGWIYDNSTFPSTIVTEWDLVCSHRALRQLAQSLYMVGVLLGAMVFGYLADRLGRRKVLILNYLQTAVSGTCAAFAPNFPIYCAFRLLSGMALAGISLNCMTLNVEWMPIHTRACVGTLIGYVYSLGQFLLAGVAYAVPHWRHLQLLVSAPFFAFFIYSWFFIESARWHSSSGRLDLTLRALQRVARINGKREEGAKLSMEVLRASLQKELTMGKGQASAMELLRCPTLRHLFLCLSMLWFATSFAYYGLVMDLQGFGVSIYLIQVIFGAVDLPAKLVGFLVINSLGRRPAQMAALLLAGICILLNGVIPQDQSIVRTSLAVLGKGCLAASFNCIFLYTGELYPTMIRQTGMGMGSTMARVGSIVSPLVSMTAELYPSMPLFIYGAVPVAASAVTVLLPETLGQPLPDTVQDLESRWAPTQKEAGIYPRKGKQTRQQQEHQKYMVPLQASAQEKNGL

[17] = target: T2, Solute carrier family 22 member 7 (Homo sapiens, UniProt Q9Y694); test: Activity at OAT2
T2 sequence (Q9Y694 whole entry): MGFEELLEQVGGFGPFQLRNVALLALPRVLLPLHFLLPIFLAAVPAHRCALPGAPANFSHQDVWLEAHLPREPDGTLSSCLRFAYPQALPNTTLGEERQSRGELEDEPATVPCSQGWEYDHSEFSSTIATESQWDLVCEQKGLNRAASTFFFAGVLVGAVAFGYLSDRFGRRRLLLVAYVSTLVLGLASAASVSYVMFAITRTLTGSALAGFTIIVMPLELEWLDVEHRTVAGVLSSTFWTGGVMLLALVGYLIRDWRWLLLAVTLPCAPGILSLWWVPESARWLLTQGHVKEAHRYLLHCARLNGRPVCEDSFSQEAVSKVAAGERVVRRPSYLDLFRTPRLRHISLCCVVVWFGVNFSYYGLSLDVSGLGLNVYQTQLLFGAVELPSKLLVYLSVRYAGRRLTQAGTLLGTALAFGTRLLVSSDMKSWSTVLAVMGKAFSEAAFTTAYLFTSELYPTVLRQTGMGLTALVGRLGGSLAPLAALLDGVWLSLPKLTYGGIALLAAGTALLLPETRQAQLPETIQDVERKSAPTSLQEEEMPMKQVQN

[18] = Half life in human; format: ADME, organism-based; details: in vivo
[19] = tested on: Hepatitis C virus; test: Antiviral activity against HCV genotype 1 infected in human at 150 mg, po; format: functional, Hepacivirus hominis
[20] = tested on: Hepatitis C virus; test: Antiviral activity against HCV genotype 1 infected in human at 300 mg, po; format: functional, Hepacivirus hominis
[21] = tested on: Hepatitis C virus; test: Antiviral activity against HCV genotype 1 infected in human at 450 mg, po; format: functional, Hepacivirus hominis
[22] = Half life in dog at 1 mg/kg, iv; format: ADME, organism-based, Canis lupus familiaris; set-up: dose 1 mg/kg, route intravenous; details: in vivo
[23] = tested on: Canis familiaris; test: AUC in dog at 1 mg/kg, iv and 4 mg/kg, po; format: ADME, organism-based, Canis lupus familiaris, Plasma; details: in vivo
[24] = Clearance in dog at 1 mg/kg, iv and 4 mg/kg, po; format: ADME, organism-based, Canis lupus familiaris; details: in vivo
[25] = Volume of distribution at steady state in dog at 1 mg/kg, iv and 4 mg/kg, po; format: ADME, organism-based, Canis lupus familiaris; details: in vivo, read-out: Vdss
[26] = Dissociation constant, pKa of the compound; format: physicochemical
[27] = Clearance in dog; format: ADME, organism-based, Canis lupus familiaris; details: in vivo

Structure (SMILES) | IC50 [1] | EC50 [2] | Papp A→B [3] | Papp B→A [4] | also measured
C=C[C@@H]1C[C@]1(NC(=O)[C@@H]1C[C@@H](Oc2cc(-c3csc(NC(C)C)n3)nc3cc(OC)ccc23)CN1C(=O)[C@@H](NC(=O)OC1CCCC1)C(C)(C)C)P(=O)(O)Cc1ccccc1OC | 6 nM | 48 nM | 0.43 ×10⁻⁶ cm/s | 6.2 ×10⁻⁶ cm/s | 
C=C[C@@H]1C[C@]1(NC(=O)[C@@H]1C[C@@H](Oc2cc(-c3csc(NC(C)C)n3)nc3cc(OC)ccc23)CN1C(=O)[C@@H](NC(=O)OC1CCCC1)C(C)(C)C)P(=O)(O)Cc1c(C)cccc1C | 63 nM | 7700 nM | 0.19 ×10⁻⁶ cm/s | 2.93 ×10⁻⁶ cm/s | 
COc1ccc2c(O[C@@H]3C[C@H]4C(=O)N[C@]5(P(=O)(O)Cc6c(F)cccc6F)C[C@H]5CCCCCCC[C@H](NC(=O)OC5CCCC5)C(=O)N4C3)cc(-c3csc(NC(C)C)n3)nc2c1 | 4 nM | 10 nM |  |  | bioavailability [7]: 2.9%
C=C[C@@H]1C[C@]1(NC(=O)[C@@H]1C[C@@H](Oc2cc(-c3csc(NC(C)C)n3)nc3cc(OC)ccc23)CN1C(=O)[C@@H](NC(=O)OC1CCCC1)C(C)(C)C)P(=O)(O)Cc1c(F)cccc1F | 4 nM | 74 nM | 1.22 ×10⁻⁶ cm/s | 10.6 ×10⁻⁶ cm/s | dose excreted at 4 h [6]: > 90%; half-life [22]: 1.6 h; AUC [23]: 3.12 µM·h; clearance [24]: 6.17 mL/min/kg; Vd [25]: 0.31 L/kg; bioavailability [7]: 8%; pKa [26]: 2.7
C=C[C@@H]1C[C@]1(NC(=O)[C@@H]1C[C@@H](Oc2cc(-c3csc(NC(C)C)n3)nc3cc(OC)ccc23)CN1C(=O)[C@@H](NC(=O)OC1CCCC1)C(C)(C)C)P(=O)(O)Cc1cccc(OC)c1 | 7 nM | 540 nM | 0.39 ×10⁻⁶ cm/s | 8.28 ×10⁻⁶ cm/s | 
COc1ccc2c(O[C@@H]3C[C@H]4C(=O)N[C@]5(P(=O)(O)Cc6c(F)cccc6F)C[C@H]5CCCCCCC[C@H](NC(=O)OC5CCCC5)C(=O)N4C3)cc(-c3csc(NC(C)C)n3)nc2c1Br | 3 nM | 7 nM |  |  | bioavailability [7]: 4.1%
C=C[C@@H]1C[C@]1(NC(=O)[C@@H]1C[C@@H](Oc2cc(-c3csc(NC(C)C)n3)nc3cc(OC)ccc23)CN1C(=O)[C@@H](NC(=O)OC1CCCC1)C(C)(C)C)P(=O)(O)Cc1cccc(C)c1 | 8 nM | 331 nM | 0.64 ×10⁻⁶ cm/s | 3.5 ×10⁻⁶ cm/s | 
COc1ccc2c(O[C@@H]3C[C@H]4C(=O)N[C@]5(C(=O)O)C[C@H]5/C=C\CCCCC[C@H](NC(=O)OC5CCCC5)C(=O)N4C3)cc(-c3csc(NC(C)C)n3)nc2c1 [CILUPREVIR] | 1 nM | 1 nM |  |  | 
COc1ccc2c(O[C@@H]3C[C@H]4C(=O)N[C@]5(P(=O)(O)Cc6c(F)cccc6F)C[C@H]5CCCCCCC[C@H](NC(=O)OC5CCCC5)C(=O)N4C3)cc(-c3csc(NC(C)C)n3)nc2c1F | 11 nM | 43 nM |  |  | bioavailability [7]: 6%
C=C[C@@H]1C[C@]1(NC(=O)[C@@H]1C[C@@H](Oc2cc(-c3csc(NC(C)C)n3)nc3cc(OC)ccc23)CN1C(=O)[C@@H](NC(=O)OC1CCCC1)C(C)(C)C)P(=O)(O)Cc1c(F)cccc1C(F)(F)F | 6 nM | 340 nM | 0.53 ×10⁻⁶ cm/s | 6.36 ×10⁻⁶ cm/s | 

Continued, in another order:

IC50 [1] | EC50 [2] | Papp A→B [3] | Papp B→A [4] | Structure (SMILES) | also measured
4 nM | 20 nM |  |  | COc1ccc2c(O[C@@H]3C[C@H]4C(=O)N[C@]5(P(=O)(O)Cc6c(F)cccc6F)C[C@H]5CCCCCCC[C@H](NC(=O)OC5CCCC5)C(=O)N4C3)cc(-c3csc(NC(C)C)n3)nc2c1Cl [GS-9256] | Ki [1]: 0.089 nM; Ratio IC50 [5]: 6600; dose excreted at 4 h [6]: 95%; bioavailability [7]: 21%; Ratio IC50 [8]: 5300; Ratio IC50 [9]: 5400; Ratio IC50 [10]: 987; Ratio IC50 [11]: 28600; inhibition (INH) [12]: Not Active; inhibition (INH) [13]: Not Active; inhibition [14]: Active; inhibition (INH) [15]: Active; Activity [16]: Active; Activity [17]: Active; half-life [18]: 7 h; Activity [19]: -1.8 log10IU/ml; Activity [20]: -2.4 log10IU/ml; Activity [21]: -2.8 log10IU/ml
6 nM | 120 nM | 0.89 ×10⁻⁶ cm/s | 5.87 ×10⁻⁶ cm/s | C=C[C@@H]1C[C@]1(NC(=O)[C@@H]1C[C@@H](Oc2cc(-c3csc(NC(C)C)n3)nc3cc(OC)ccc23)CN1C(=O)[C@@H](NC(=O)OC1CCCC1)C(C)(C)C)P(=O)(O)Cc1c(F)cccc1Cl | 
7 nM | 284 nM | 0.84 ×10⁻⁶ cm/s | 4.38 ×10⁻⁶ cm/s | C=C[C@@H]1C[C@]1(NC(=O)[C@@H]1C[C@@H](Oc2cc(-c3csc(NC(C)C)n3)nc3cc(OC)ccc23)CN1C(=O)[C@@H](NC(=O)OC1CCCC1)C(C)(C)C)P(=O)(O)Cc1ccc(F)cc1 | 
7 nM | 170 nM | 0.7 ×10⁻⁶ cm/s | 6.1 ×10⁻⁶ cm/s | C=C[C@@H]1C[C@]1(NC(=O)[C@@H]1C[C@@H](Oc2cc(-c3csc(NC(C)C)n3)nc3cc(OC)ccc23)CN1C(=O)[C@@H](NC(=O)OC1CCCC1)C(C)(C)C)P(=O)(O)Cc1ccccc1 | 
4 nM | 170 nM | 0.53 ×10⁻⁶ cm/s | 2.74 ×10⁻⁶ cm/s | C=C[C@@H]1C[C@]1(NC(=O)[C@@H]1C[C@@H](Oc2cc(-c3csc(NC(C)C)n3)nc3cc(OC)ccc23)CN1C(=O)[C@@H](NC(=O)OC1CCCC1)C(C)(C)C)P(=O)(O)Cc1ccccc1F | 
6 nM | 5 nM |  |  | COc1ccc2c(O[C@@H]3C[C@H]4C(=O)N[C@]5(P(=O)(O)Cc6ccccc6)C[C@H]5CCCCCCC[C@H](NC(=O)OC5CCCC5)C(=O)N4C3)cc(-c3csc(NC(C)C)n3)nc2c1 | clearance [27]: 6 mL/min/kg
10 nM | 460 nM | 0.71 ×10⁻⁶ cm/s | 5.83 ×10⁻⁶ cm/s | C=C[C@@H]1C[C@]1(NC(=O)[C@@H]1C[C@@H](Oc2cc(-c3csc(NC(C)C)n3)nc3cc(OC)ccc23)CN1C(=O)[C@@H](NC(=O)OC1CCCC1)C(C)(C)C)P(=O)(O)Cc1ccc(OC)cc1 | 
8 nM | 239 nM | 0.34 ×10⁻⁶ cm/s | 1.8 ×10⁻⁶ cm/s | C=C[C@@H]1C[C@]1(NC(=O)[C@@H]1C[C@@H](Oc2cc(-c3csc(NC(C)C)n3)nc3cc(OC)ccc23)CN1C(=O)[C@@H](NC(=O)OC1CCCC1)C(C)(C)C)P(=O)(O)Cc1cccc(F)c1 | 
8 nM | 146 nM | 0.69 ×10⁻⁶ cm/s | 3.9 ×10⁻⁶ cm/s | C=C[C@@H]1C[C@]1(NC(=O)[C@@H]1C[C@@H](Oc2cc(-c3csc(NC(C)C)n3)nc3cc(OC)ccc23)CN1C(=O)[C@@H](NC(=O)OC1CCCC1)C(C)(C)C)P(=O)(O)Cc1ccccc1C | 
15 nM | 860 nM | 0.69 ×10⁻⁶ cm/s | 12 ×10⁻⁶ cm/s | C=C[C@@H]1C[C@]1(NC(=O)[C@@H]1C[C@@H](Oc2cc(-c3csc(NC(C)C)n3)nc3cc(OC)ccc23)CN1C(=O)[C@@H](NC(=O)OC1CCCC1)C(C)(C)C)P(=O)(O)Cc1ccc(C)cc1 | 
